Experiment: Human HepG2 cell viability assay in 384 well format
Type: toxicity, cell-based
Parameters: dose 125 nL, time 70.5 hour; concentration not given beside the values
Settings: HepG2 cells, read-out: Inhibition

SMILES	cytotoxicity at 70.5 h [%]
COCCNC(=O)[C@H]1CN(c2ncccn2)C[C@H]2OCC[C@@H]12	-15.6
CN(C)C(=O)[C@H]1C[C@@H]2CN(S(=O)(=O)c3ccccc3)C[C@H]1O2	-6.1
CN(C)C(=O)NC1COC2(CCN(Cc3ccc(N(C)C)cc3)CC2)C1 (configuration not stated)	-2.99
Cc1ccc(N2C[C@H](C(=O)N3CCOCC3)[C@@H]3CCO[C@@H]3C2)nn1	-11.3
CN(C)CC(=O)N1Cc2ncn(C)c2C(COCC2CCOCC2)C1 (configuration not stated)	-6.48
O=C1[C@H]2CN(Cc3ccoc3)C[C@@H]2CCN1Cc1cccnc1	-8.89
c1ccc(CCN2C[C@@H]3OCCN(c4ncccn4)[C@@H]3C2)cc1	-9.92
Cn1cc(Cl)cc1C(=O)N1CCC2(CCCN(CC3CCC3)C2=O)C1 (configuration not stated)	18.1
Cc1cnccc1N1CCCN(C(=O)CCc2n[nH]c(C)c2C)CC1	18.7
Cc1ccccc1[C@@H]1CN(CCOCCO)C[C@H]1C(=O)O	-6.95
CNc1nc2c(c(C(=O)N3CCCC3)n1)CN(C(=O)C1CCCC1)CC2	15.7
Cc1ccc(OCC2CCCN(CC3CCOCC3)C2)cc1 (configuration not stated)	2.28
CCCc1cc(C(=O)N2CC(c3ccncc3)C2)ccn1	8.75
Cc1cccnc1CN1CCN(C[C@]2(O)CCCN3CCCC[C@@H]32)CC1	-6.65
COCCC(=O)N1CCCC(CCC(=O)Nc2ccc(Cl)cc2)C1 (configuration not stated)	-6.03
COc1ccc(N2CCN(C(=O)Cn3nc(C)c(C)c3C)C(C)C2)cc1 (configuration not stated)	6.36
CN(Cc1cc(C2CC2)on1)C(=O)C(c1cccnc1)N1CCCC1 (configuration not stated)	-1.03
CCOC(=O)CNc1nc(COC)nc2c1cnn2C	-4.25
COc1ccc(CCn2ccnc2-c2cc3n(n2)CCCNC3)cc1	-10.7
CC(C)=CCCC1(C)CCC(=O)N(CCNc2nc(C)cc(=O)[nH]2)C1 (configuration not stated)	-10.3
CCCn1c(C)c(CC(=O)NC(C)CO)c2c1CC(C)(C)CC2=O (configuration not stated)	9.89
COCCc1noc(-c2cn(CCc3ccccc3)nn2)n1	2.44
CCCc1cc(=O)[nH]c(-c2cccc(CN3CCCCCC3)c2)n1	25.8
O=C(CSCC1CC1)N1C[C@@H]2CC[C@H](C1)N(Cc1ccccn1)C2=O	-8.12
C[C@@H]1CN(C2CCN(Cc3cnc(-c4cccs4)nc3)CC2)C[C@H](C)O1	1.06
CCc1nc(C)sc1C(=O)N1CCN(c2ncccc2C)CC1	-4.24

SMILES	cytotoxicity at 70.5 h [%]
CSCc1noc(C2CCC(=O)N(CCc3ccccc3)C2)n1 (configuration not stated)	-13.9
Cc1nc(CC(=O)N2CCCN(c3ccc(F)cc3)CC2)cs1	-3.38
CCCOC1CCCN(C(=O)Cn2cccc(C(F)(F)F)c2=O)C1 (configuration not stated)	-6.8
CC(C)[C@H](Nc1nc(C2CCCC2)nc2c1cnn2C)C(N)=O	-12.3
CC(C)CN1C[C@@H](C(=O)O)C[C@@H](C(=O)NCc2ccncc2)C1	-2.12
CC(=O)c1ccc(N2CCCC(CO)(Cc3ccccc3F)C2)nc1 (configuration not stated)	20.4
CCCNc1ncc(CN2CCN(C)C(=O)C2C)cn1 (configuration not stated)	16
Cc1ncsc1CCC(=O)N1CCN(CCn2cncn2)CC1	-10.7
COCC(=O)NCc1cc2n(n1)CCCN(CCCC1CCCC1)C2	-2.24
NC(=O)c1cncc(N2CCN(Cc3cccc4nsnc34)CC2)n1	-5.47
Cc1cncc(C(=O)N2C[C@@H](C(=O)O)[C@H](C(C)C)C2)c1	28.4
O=C(c1csc2nc(-c3ccc(Cl)cc3)cn12)N1CCCC(CO)C1 (configuration not stated)	-5.49
COCCn1c(=O)n(Cc2cccc(F)c2F)c2cc(C(=O)O)ccc21	18.8
Cc1cccc(OC2CCN(C(=O)CNC(=O)N(C)C)CC2)c1	-0.834
COc1cccc(OCC2CCCN(C(=O)c3cnn(C)c3)C2)c1 (configuration not stated)	27.4
Cc1nc(C)c(-c2nnc(SCC(=O)O)n2C(C)c2ccccc2)o1 (configuration not stated)	-2.71
CO[C@H]1CNC[C@@H]1NC(=O)c1cc(C)nc2c(C)cc(C)cc12	2.49
CCC(C)N(Cc1sccc1C)C(=O)c1ccc2cccnc2n1 (configuration not stated)	-11.7
CCOc1ccc2[nH]c(=O)c(CN3CCC(N4CCCC4)CC3)cc2c1	-4.41
Cc1ccsc1[C@@H]1CCN(C(=O)Cc2ccc(O)cc2)C[C@H]1O	-2.32
CC1=C(CCN2C[C@H](O)[C@@H](N3CCOCC3)C2)C(C)(C)CCC1	-8.76
Cn1c(Cn2ccnc2)nnc1C1CCN(C(=O)c2ccoc2)CC1	-7.81
COc1ncc(-c2nccn2C(C)CCn2cccn2)cn1 (configuration not stated)	2.54
CCC[C@H]1CN(C2CCOCC2)C[C@@H]1NC(=O)CCCn1ccnc1	-2.79
O=C(Nc1ccccc1N1CCOC1=O)N1CCSCC1	14.3
COc1cccc2c(=O)n(C3CCNCC3)cnc12	-18.3

SMILES	cytotoxicity at 70.5 h [%]
CCN(CC)Cc1cc(C(=O)N2CCCC(CC)(C(=O)O)C2)c(C)o1 (configuration not stated)	-3.17
Cc1ccc2ncn(C(C)Cn3cccn3)c(=O)c2c1 (configuration not stated)	-5.52
O=C(CCn1cncn1)N1C[C@H]2CC[C@@H]1CN(Cc1cccnc1)C2	-9.48
CCc1nnc(CN(C)C(=O)C(CC)n2c(CC)nc3ccccc32)o1 (configuration not stated)	3.98
O=C1[C@@H]2C[C@H](O)CCN2C(=O)CN1CCSc1ccccn1	0.109
C1=CCN(c2nc(CC3CC3)nc3c2CCN(C2CCOCC2)CC3)C1	-1.95
COc1cc(N2CCN(Cc3ccsc3)C(CCO)C2)nc(N)n1 (configuration not stated)	9.1
CCNC(=O)[C@@H]1C[C@@H](N)CN1Cc1ccc2cccc(Cl)c2n1	20.1
OCc1cn(CC2CCN(C3CCSC3)CC2)nn1 (configuration not stated)	-8.28
CCCOC(=O)N1CCc2cccc(S(=O)(=O)N3CCOCC3)c2C1	-8.66
CCCN1CCCn2nc(CNC(=O)CN(C)C3CCCC3)cc2C1	-8
Cc1nc(CC(=O)NCCN2CCC(c3ccccc3C)C2)cs1 (configuration not stated)	-8.35
O=C(O)C1(Oc2ccccc2F)CCN(C/C=C/c2ccco2)CC1	-7.74
Cc1cc(CN2CCc3c(CNc4ncccn4)cncc3C2)oc1C	-0.479
Cc1ccc(N2C[C@H]3OCC[C@H]3[C@H](C(=O)NCC3CC3)C2)nn1	-12.5
CO[C@@H]1CCN(Cc2nccs2)C[C@@H]1Cc1ccccc1	-11.2
O=C(c1ccncc1)N1C[C@@H]2CCN(c3cccnc3)C[C@@H]2C1	-16.9
O=C(O)c1cc2c(nc1-c1ccoc1)CCN(CC1CCOC1)CC2 (configuration not stated)	-13.1
Cn1cnc2c1C(COCC1CCOCC1)CN(c1ncccn1)C2 (configuration not stated)	-11.3
COCC1CN(Cc2ccncc2)Cc2nn(CC3CC3)cc21 (configuration not stated)	-12.8
O=C1[C@@H]2CCN(C3CCOCC3)C[C@@H]2OCCN1Cc1cccnc1	-16
COCCNC(=O)C1CN(Cc2cccc(C)n2)Cc2ccnn2C1 (configuration not stated)	-5.1
COCCNC(=O)C1CN(Cc2nccs2)Cc2ccnn2C1 (configuration not stated)	-6.42
COCCNC(=O)C1CN(Cc2ccncc2)Cc2ccnn2C1 (configuration not stated)	-14.1
c1cncc(CN2CCO[C@@H]3CN(Cc4ccoc4)CC[C@@H]3C2)c1	-7.13
